Measurements as given in patent US20260042764A1, “COMPOSITIONS AND METHODS FOR INHIBITION OF KRAS” (TheRas, Inc., priority 2022, published 2026).

Legend:
[1] = target: T1, Avi-KRAS G12V (1-169) GppNHp/RAF1 RBD-3xFLAG (52-151) (Homo sapiens, UniProt P01116, G12V); assay: Raf1-KRAS G12V-GppNHP disruption HTRF assay (Biological Example 1); type: binding
T1 construct: Avi-KRAS G12V (1-169)
Procedure, shortened: (§1)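 First, protein mix in Tris pH 7.5 buffer with NaCl, MgCl2, BSA, Tween and 10% DMSO is incubated 1 h at room temperature. Next, reagent mix is added and incubated a further 1 h at room temperature. Finally, HTRF is read and activity normalized to DMSO.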

[2] = target: T2, Avi-KRAS G12D (1-169) GppNHp/RAF1 RBD-3xFLAG (52-151) (Homo sapiens, UniProt P01116, G12D); assay: Raf1-KRAS G12D-GppNHP disruption HTRF assay (Biological Example 1); type: binding
T2 construct: Avi-KRAS G12D (1-169)
Procedure, shortened: as §1

[3] = target: T3, Avi-KRAS G12R (1-169) GppNHp/RAF1 RBD-3xFLAG (52-151) (Homo sapiens, UniProt P01116, G12R); assay: Raf1-KRAS G12R-GppNHP disruption HTRF assay (Biological Example 1); type: binding
T3 construct: Avi-KRAS G12R (1-169)
Procedure, shortened: as §1

[4] = target: T4, Avi-KRAS WT (1-169) GppNHp/RAF1 RBD-3xFLAG (52-151) (Homo sapiens, UniProt P01116); assay: Raf1-KRAS WT-GppNHP disruption HTRF assay (Biological Example 1); type: binding
T4 construct: Avi-KRAS WT (1-169)
Procedure, shortened: as §1

[5] = system: GP2d cells (KRAS G12D); assay: Cell-based pERK HTRF assay in GP2d cell (Biological Example 2); details: GP2d, GP2d (KRAS G12D) cells, pERK HTRF
Procedure, shortened: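 Treatment with test compounds lasted one hour in DMEM containing 10% FBS, with DMSO held at 0.25%. Dilution series: 9 points, half-log spacing, highest 1 μM or 100 nM. Lysates were incubated 4–24 h at room temperature with antibody mix, then HTRF was read at 320 nm excitation.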

[6] = system: SW620 cells (KRAS G12V); assay: Cell-based pERK HTRF assay in SW620 cell (Biological Example 4); details: Homo sapiens, SW-620, SW620 (KRAS G12V) cells, pERK HTRF
Procedure, shortened: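 SW620 cells were treated for 4 h with compound in a 9-point half-log series from 1 μM top (0.25% DMSO), then lysed. Phospho-ERK was detected by HTRF with d2 and Eu cryptate antibodies after 4–24 h at room temperature, read at 615 nm emission.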

[7] = KRAS G12V, GppNHp-loaded, class symbols
[8] = KRAS G12D, GppNHp-loaded, class symbols
[9] = KRAS G12R, GppNHp-loaded, class symbols
[10] = KRAS WT, GppNHp-loaded, class symbols
[11] = KRAS G12V, GppNHp-loaded, Table 11
[12] = KRAS G12D, GppNHp-loaded, Table 11
[13] = KRAS G12R, GppNHp-loaded, Table 11
[14] = KRAS WT, GppNHp-loaded, Table 11

T4 sequence (P01116 1-169 isoform P01116-2): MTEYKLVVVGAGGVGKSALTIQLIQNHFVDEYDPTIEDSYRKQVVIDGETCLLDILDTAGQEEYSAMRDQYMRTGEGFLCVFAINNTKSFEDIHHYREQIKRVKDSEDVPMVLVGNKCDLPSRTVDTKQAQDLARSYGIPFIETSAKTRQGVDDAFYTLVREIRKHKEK
T1 sequence (P01116 1-169 isoform P01116-2 G12V): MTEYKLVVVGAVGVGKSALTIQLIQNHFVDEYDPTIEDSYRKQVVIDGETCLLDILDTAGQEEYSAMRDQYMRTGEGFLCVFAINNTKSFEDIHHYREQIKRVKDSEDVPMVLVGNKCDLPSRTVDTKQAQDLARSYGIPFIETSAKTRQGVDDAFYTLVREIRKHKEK
T3 sequence (P01116 1-169 isoform P01116-2 G12R): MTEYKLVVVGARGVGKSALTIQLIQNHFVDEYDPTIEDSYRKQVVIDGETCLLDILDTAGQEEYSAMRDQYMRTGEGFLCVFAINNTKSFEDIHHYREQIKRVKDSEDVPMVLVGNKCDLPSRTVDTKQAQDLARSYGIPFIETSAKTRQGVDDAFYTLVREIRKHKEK
T2 sequence (P01116 1-169 isoform P01116-2 G12D): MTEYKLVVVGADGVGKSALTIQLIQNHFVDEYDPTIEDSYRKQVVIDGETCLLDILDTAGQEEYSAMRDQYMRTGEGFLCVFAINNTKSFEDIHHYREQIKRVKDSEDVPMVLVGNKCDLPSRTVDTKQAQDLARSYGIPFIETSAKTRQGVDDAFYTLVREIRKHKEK

| Compound | IC50 [1, 7] [nM] | IC50 [2, 8] [nM] | IC50 [3, 9] [nM] | IC50 [4, 10] [nM] | IC50 ([5]; class symbols) [nM] | IC50 ([6]; class symbols) [nM] | IC50 [5] [nM] | IC50 [6] [nM] | IC50 [1, 11] [nM] | IC50 [2, 12] [nM] | IC50 [3, 13] [nM] | IC50 [4, 14] [nM] | IC50 ([1]; KRAS G12V-GppNHp/RAF1 RBD HTRF) [nM] | IC50 ([2]; KRAS G12D-GppNHp/RAF1 RBD HTRF) [nM] | IC50 ([3]; KRAS G12R-GppNHp/RAF1 RBD HTRF) [nM] | IC50 ([4]; KRAS WT-GppNHp/RAF1 RBD HTRF) [nM] |
| --- | --- | --- | --- | --- | --- | --- | --- | --- | --- | --- | --- | --- | --- | --- | --- | --- |
| CCN(c1nc(OC[C@@]23CCCN2C[C@H](F)C3)nc2c(F)c(-c3ccc(F)c4sc(N)c(C#N)c34)c(C(F)(F)F)cc12)[C@H]1CCN(C(=O)c2cnco2)C1 (atropisomer, axis not shown) [Compound 708] | < 100 | < 100 | < 100 | < 100 | < 100 | < 100 |  |  |  |  |  |  |  |  |  |  |
| N#Cc1c(N)sc2c(F)ccc(-c3c(C(F)(F)F)cc4c(N5CC6CC(C5)O6)nc(OC[C@@]56CCCN5C[C@]5(CC5(F)F)C6)nc4c3F)c12 [Compound 365] |  |  |  |  |  |  | < 100 | < 100 |  |  |  |  | 100 to 1000 | 100 to 1000 | 100 to 1000 | 100 to 1000 |
| CCN(c1nc(OC[C@@]23CCCN2C[C@H](F)C3)nc2c(F)c(-c3ccc(F)c4sc(N)c(C#N)c34)c(C(F)(F)F)cc12)[C@H]1C[C@H](COC)N(C(=O)N(C)C)C1 (atropisomer, axis not shown) [Compound 717] | 100 to 1000 | 100 to 1000 | 100 to 1000 | 100 to 1000 | < 100 | < 100 |  |  |  |  |  |  |  |  |  |  |
| CCN(c1nc(OC[C@@]23CCCN2C[C@H](F)C3)nc2c(F)c(-c3ccc(F)c4sc(N)c(C#N)c34)c(C(F)(F)F)cc12)[C@H]1CCN(C(=O)C(C)(F)F)C1 (atropisomer, axis not shown) [Compound 587] | < 100 | < 100 | < 100 | < 100 | < 100 | < 100 |  |  |  |  |  |  |  |  |  |  |
| COC(=O)N1CC[C@H](N(C)c2nc(OC[C@@]34CCCN3C[C@H](F)C4)nc3c(F)c(-c4ccc(F)c5sc(N)c(C#N)c45)c(C(F)(F)F)cc23)C1 (atropisomer, axis not shown) [Compound 756] | < 100 | < 100 | < 100 | < 100 | < 100 | < 100 |  |  |  |  |  |  |  |  |  |  |

Further lines, with some results ahead:

| IC50 [1, 7] [nM] | IC50 [2, 8] [nM] | IC50 [3, 9] [nM] | IC50 [4, 10] [nM] | IC50 ([5]; class symbols) [nM] | IC50 ([6]; class symbols) [nM] | IC50 [5] [nM] | IC50 [6] [nM] | IC50 [1, 11] [nM] | IC50 [2, 12] [nM] | IC50 [3, 13] [nM] | IC50 [4, 14] [nM] | Compound | IC50 ([1]; KRAS G12V-GppNHp/RAF1 RBD HTRF) [nM] | IC50 ([2]; KRAS G12D-GppNHp/RAF1 RBD HTRF) [nM] | IC50 ([3]; KRAS G12R-GppNHp/RAF1 RBD HTRF) [nM] | IC50 ([4]; KRAS WT-GppNHp/RAF1 RBD HTRF) [nM] |
| --- | --- | --- | --- | --- | --- | --- | --- | --- | --- | --- | --- | --- | --- | --- | --- | --- |
| 100 to 1000 | < 100 | < 100 | < 100 | < 100 | < 100 |  |  |  |  |  |  | CCN(c1nc(OC[C@@]23CCCN2C[C@H](F)C3)nc2c(F)c(-c3ccc(F)c4sc(N)c(C#N)c34)c(C(F)(F)F)cc12)[C@@H]1CCN(C(=O)[C@H](C)OC)[C@@H]1C (atropisomer, axis not shown) [Compound 789] |  |  |  |  |
|  |  |  |  |  |  | < 100 | 100 to 1000 | 100 to 1000 | 100 to 1000 | 100 to 1000 | 100 to 1000 | CNC(=O)CN(C)c1nc(OC[C@@]23CCCN2C[C@H](F)C3)nc2c(F)c(-c3ccc(F)c4sc(N)c(C#N)c34)c(C(F)(F)F)cc12 [Compound 209] |  |  |  |  |
| 100 to 1000 | 100 to 1000 | 100 to 1000 | 100 to 1000 | < 100 | < 100 |  |  |  |  |  |  | CCN(c1nc(OC[C@@]23CCCN2C[C@H](F)C3)nc2c(F)c(-c3ccc(F)c4sc(N)c(C#N)c34)c(C(F)(F)F)cc12)[C@@H]1C[C@H](C)N(C(=O)C2COC2)C1 (atropisomer, axis not shown) [Compound 630] |  |  |  |  |
|  |  |  |  |  |  | < 100 | 100 to 1000 | 1000 to 10000 | 100 to 1000 | 100 to 1000 | 100 to 1000 | CC(C)(O)[C@H]1CCN1c1nc(OC[C@@]23CCCN2C[C@H](F)C3)nc2c(F)c(-c3ccc(F)c4sc(N)c(C#N)c34)c(C(F)(F)F)cc12 [Compound 269] |  |  |  |  |
|  |  |  |  |  |  | < 100 | < 100 |  |  |  |  | C[C@@H]1[C@H](N(C)c2nc(OC[C@@]34CCCN3C[C@H](F)C4)nc3c(F)c(-c4ccc(F)c5sc(N)c(C#N)c45)c(C(F)(F)F)cc23)CCN1C(=O)C(F)F [Compound 458] | 100 to 1000 | 100 to 1000 | 100 to 1000 | 100 to 1000 |
